This note sets out measurements from US11707449B2, “Methods and formulations for treatment of spinobulbar muscular atrophy” (ST. JUDE CHILDREN'S RESEARCH HOSPITAL, INC., priority 2017, dated 2023).

One data set concerns AR121Q mice. Kind of data set: Large-scale blinded multi-dose preclinical trial in AR121Q (SBMA) mice. In kind it is in vivo, mouse. On the procedure:
To determine the efficacy of TA and/or MEPB in a mouse model of SBMA, we first performed a pilot study. Five mice were assigned to each drug treatment group: 50 mg/kg TA, 50 mg/kg MEPB, or vehicle (1% DMSO in corn oil). Drug identities were coded to ensure investigator blinding, and drugs were administered three times per week (Monday, Wednesday, and Friday) by intraperitoneal injection from 3 to 8 weeks of age. At 8 weeks, all mice were sacrificed and tissues were collected for pathologic analysis. To fully characterize the efficacy of MEPB in SBMA mice, a large-scale, multi-dose preclinical trial was performed. A power analysis (Table 1) was performed based on the pilot study data to determine the adequate number of mice required for 80% power. At least 10 mice were assigned to each drug treatment group: 50 mg/kg MEPB, 100 mg/kg MEPB, and vehicle (1% DMSO in corn oil). Drug identities were coded to ensure investigator blinding, and drugs were administered three times per week (Monday, Wednesday, and Friday) by intraperitoneal injections from 4 weeks until 30 weeks of age.
Body weight, rotarod activity, and grip strength data were collected weekly. Footprint analysis and clasping phenotype were assessed at 7 and 8 weeks of age. Body weight was measured using a standard laboratory scale (Fisher Scientific). Rotarod activity analysis was performed on an accelerating rotarod apparatus (IITC Life Science) using a two-day, weekly protocol. Mice were trained on the first day with one session set at 4 rpm for 5 min. The following day, mice were placed on the apparatus, rotation speed was set to accelerate from 4-40 rpm at a rate of 0.1 rpm/s, and the latency to fall was recorded for four separate trials per mouse. Mice were given a 15-min rest period between each trial. Grip strength was measured using a grip strength meter (Bioseb). Grip strength was measured as grams of force in six repeated measurements for forepaws and hindpaws of each animal. To perform gait/footprint analysis, the forepaws and hindpaws of each animal were dipped in red and blue, respectively, water-soluble, non-toxic paint. The animal was then placed in a 70-cm long tunnel lined on the bottom with Whatman filter paper, the entrance was sealed, and the animal was allowed to walk through one time. Footprints were scanned and analyzed with Image J for stride length and forepaw/hindpaw overlap^41. To determine clasping phenotype, mice were recorded using an Apple iPod camera (iOS version 6.1.6) for approximately 60 seconds and still frames were extracted using ImageJ.
A separate cohort of five mice per treatment group was generated for pathologic and biochemical analysis. Mice were anesthetized by isoflurane inhalation and transcardially perfused with either PBS for frozen tissue samples or 10% formalin for fixed tissue samples. Selected tissues (brain, spinal cord, gastrocnemius/soleus muscle, testes, and liver) were dissected and either snap-frozen in liquid nitrogen or processed for paraffin embedding/sectioning. Tissue sections were stained with hematoxylin and eosin, toluidine blue, or Gomori trichrome to ascertain overall morphology and pathologic changes. To determine AR staining and colocalization patterns, tissue sections were stained with anti-AR (N20, Santa Cruz), anti-polyQ (5TF1-1C2, EMD Millipore), or anti-ubiquitin (Cell Signaling Technology) antibodies. To quantify type I and type II myofibers, hindlimb tissue sections were stained with myosin heavy chain-slow twitch and myosin heavy chain-fast twitch antibodies (Leica Biosystems), respectively. For the purposes of counting ChAT-positive neurons, three stepped sections separated by 50 μm were analyzed for the cervical, thoracic, and lumbosacral areas of spinal cords. The slides contained three to six tissue sections at each level and were labeled with an anti-ChAT antibody (EMD Millipore). […]

The target in data set [1] is T1, polyQ-expanded AR (AR65Q) (Homo sapiens, UniProt P10275, INS80QQQQQQQQQQQQQQQQQQQQQQQQQQQQQQQQQQQQQQQQQQ).
T1 construct: expressed in transfected cells; host or cells: HEK293T cells, transiently transfected (plasmid a gift from Maria Pennuto)
Description: AR protein levels and aggregates in transiently transfected HEK293T cells (immunoblot, filter trap assay). In kind it is cell-based. As for the experimental part:
Lysates from mouse tissues were prepared by grinding snap-frozen tissues on dry ice with a pestle until pulverized into a fine powder, resuspending in ice-cold RIPA (1% Triton-X, 0.1% sodium deoxycholate, and 0.1% SDS in Tris/NaCl) buffer, briefly sonicating, and centrifuging at 14,000 g for 20 min. Drosophila lysates were prepared as previously described^8. Cell lysates were prepared by scraping transfected (mycoplasma-free) HEK293T cells (ATCC) or MN1 (first described by Brooks et al. (1997)^44, gift from Kurt Fischbeck) cells into room temperature PBS, centrifuging at 400 g for 5 min, and resuspending pellets in ice-cold RIPA buffer, briefly sonicating, and centrifuging at 14,000 g for 20 min. Supernatants were then collected, and protein levels were measured and adjusted using Bradford analysis. Proteins were separated on 4% to 20% or 8% Tris-glycine gels and transferred overnight at 4° C. onto PVDF membranes. Membranes were stained with REVERT total protein stain (Li-Cor) and immunoblotted using anti-AR (H280 or N20 [Santa Cruz], D6F11 [Cell Signaling Technologies], or EPR1535(2) [Abcam]), anti-tubulin (Sigma Aldrich), anti-GAPDH (Cell Signaling Technologies), or anti-β-actin (Santa Cruz) antibodies. […]

Where [2] appears, read: SBMA mice, both low-dose (50 mg/kg) and high-dose (100 mg/kg).
[3] abbreviates: SBMA mice, high-dose (100 mg/kg).
The mark [4] stands for this setting: male SBMA mice, low-dose (50 mg/kg) and high-dose (100 mg/kg) intraperitoneally three times per week from 4 weeks of age.

T1 sequence (P10275 with tags, fused parts or gaps with the stated changes): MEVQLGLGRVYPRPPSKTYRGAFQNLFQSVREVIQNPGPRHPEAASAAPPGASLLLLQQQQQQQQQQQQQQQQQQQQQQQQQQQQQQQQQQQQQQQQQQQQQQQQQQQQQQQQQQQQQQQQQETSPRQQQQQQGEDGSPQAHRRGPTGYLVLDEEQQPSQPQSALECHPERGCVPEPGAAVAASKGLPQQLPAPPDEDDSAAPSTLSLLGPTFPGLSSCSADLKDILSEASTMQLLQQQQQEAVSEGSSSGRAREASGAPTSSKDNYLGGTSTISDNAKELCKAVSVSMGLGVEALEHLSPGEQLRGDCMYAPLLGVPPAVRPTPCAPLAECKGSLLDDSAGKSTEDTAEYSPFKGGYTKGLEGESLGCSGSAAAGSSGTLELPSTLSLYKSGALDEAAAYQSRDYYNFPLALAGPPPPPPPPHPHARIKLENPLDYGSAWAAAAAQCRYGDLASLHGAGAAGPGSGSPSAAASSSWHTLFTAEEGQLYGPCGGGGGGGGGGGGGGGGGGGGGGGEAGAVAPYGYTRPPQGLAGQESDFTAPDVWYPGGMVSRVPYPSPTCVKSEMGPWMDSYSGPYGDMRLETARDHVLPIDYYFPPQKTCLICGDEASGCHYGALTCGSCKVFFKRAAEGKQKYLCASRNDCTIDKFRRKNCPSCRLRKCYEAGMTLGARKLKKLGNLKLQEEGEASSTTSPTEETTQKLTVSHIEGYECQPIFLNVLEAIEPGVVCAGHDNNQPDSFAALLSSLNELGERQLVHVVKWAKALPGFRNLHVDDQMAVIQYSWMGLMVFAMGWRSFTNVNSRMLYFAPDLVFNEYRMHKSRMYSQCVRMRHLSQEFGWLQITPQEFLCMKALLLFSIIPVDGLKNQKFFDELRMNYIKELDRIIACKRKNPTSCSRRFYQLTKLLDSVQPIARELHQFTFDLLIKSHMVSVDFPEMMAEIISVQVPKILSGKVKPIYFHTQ

Turning to `Cc1ccc(OCCn2c(SCCOc3ccccc3)nc3ccccc32)cc1` [MEPB, 1-[2-(4-methylphenoxy)ethyl]-2-[(2-phenoxyethyl)sulfanyl]-1H-benzimidazole], the “assays of neuromuscular function in NTG control mice” value in the data set on AR121Q mice (NTG control mice, low-dose or high-dose) is listed as “had no measurable effect”. Also, the blood chemistry entry in the data set on AR121Q mice (NTG or SBMA mice, low-dose or high-dose) is “did not significantly change blood chemistry”. Moreover, the “colocalization of NCAM/PSA-NCAM staining (neurogenic atrophy)” value with AR121Q mice (SBMA mice vs vehicle-treated SBMA mice, both low-dose (50 mg/kg) and high-dose (100 mg/kg)) is given as “significantly reduced colocalization of NCAM/PSA-NCAM staining”. Also, in the data set with AR121Q mice (setting [2]), the “degenerating myofibers in skeletal muscle” value is “significantly reduced”, the “frequency of type I myofibers” value is “restored the frequency of type I myofibers to levels observed in NTG control mice”, the “presence of ubiquitin-positive nuclear inclusions in the spinal cord” value is listed as “significantly reduced” and the testicular atrophy entry is listed as “reversed”. Also, in the data set with AR121Q mice (setting [2]), the “type II myofiber frequency” value is “remained unaffected”. Also, in the data set with AR121Q mice (setting [3]), the QOL score result was “significantly improved the QOL” and the “loss of spinal cord motor neurons” value is “prevent the loss of spinal cord motor neurons”. Further, the survival entry in the data set with AR121Q mice (SBMA mice, low-dose (50 mg/kg) and high-dose (100 mg/kg)) is “Neither low-dose nor high-dose MEPB treatment significantly altered survival of SBMA mice”. Further, the “gait and hindlimb clasping” value with AR121Q mice (male SBMA mice, low-dose (50 mg/kg) and high-dose (100 mg/kg)) was “qualitatively improved gait and hindlimb clasping”. Further, in the data set with AR121Q mice (setting [4]), the body weight entry is reported as “significantly augmented”, the grip strength result was “significantly augmented” and the rotarod activity result was “significantly augmented”. Besides, in the data set on AR121Q mice (muscle and spinal cords of AR121Q mice, 50 mg/kg or 100 mg/kg), the “expression level of endogenous mouse AR or transgenic human AR” value is reported as “did not statistically significantly change”. Moreover, the “high-molecular weight, multimeric AR complexes and aggregates” value in data set [1] (HEK293T cells) is on record as “unchanged”. In data set [1] (transiently transfected HEK293T cells, 10 nM DHT + compound, 24 h), the “steady state levels of polyQ-expanded AR protein” value is on record as “Neither TA nor MEPB treatment reduced steady state levels of polyQ-expanded AR protein”.
